29 compounds from patent US6635635B2, “Benzothiadiazine compounds” (Les Laboratoires Servier, priority 2000, dated 2003) can be followed below.

Each structure is given as a SMILES string.

For the first data set, the system named is AMPA receptor. Briefly: Study of excitatory fluxes induced by AMPA in Xenopus oocytes (2-electrode voltage-clamp). It counts as cell-based. As to conditions: Xenopus oocytes injected with poly(A+) mRNA from rat cerebral cortex; AMPA 10 μM; 20-24° C. The method, then:
Study of Excitatory Fluxes Induced by AMPA in Xenopus oocytes
mRNAs are prepared from cerebral cortex of male Wistar rat by the guanidium thiocyanate/phenol/chloroform method. The poly (A^+) mRNAs are isolated by chromatography on oligo-dT cellulose and injected with 50 ng per oocyte. The oocytes are left for 2 to 3 days' incubation at 18° C. to enable expression of the receptors and are then stored at 8-10° C.
Electrophysiological recording is carried out in a Plexiglass® chamber at 20-24° C. in an OR2 medium (J. Exp. Zool., 1973, 184, 321-334) by the 2-electrode “voltage-clamp” method, with a 3rd electrode being placed in the bath to serve as reference.
All the compounds are administered via the incubation medium and the electric current is measured at the end of the period of administration. AMPA is used in a concentration of 10 μM. For each compound studied, there is determined the concentration that doubles (EC2X) or quintuples (EC5X) the intensity of the flux induced by AMPA alone (5 to 50 nA).
`CC(=O)Oc1ccc2c(c1)S(=O)(=O)NC1CCCN21` (single isomer, unassigned) [Ex. 8, 5,5-Dioxo-2,3,3a,4-tetrahydro-1H-pyrrolo[2,1-c][1,2,4]benzothiadiazin-7-yl acetate, α isomer dextro]: the “EC2X (concentration that doubles the intensity of the flux induced by AMPA alone)” value (“EC2X” for short) is 20 µM.

For `CC(=O)Oc1ccc2c(c1)S(=O)(=O)NC1CCCN21` (single isomer, unassigned) [Ex. 9, 5,5-Dioxo-2,3,3a,4-tetrahydro-1H-pyrrolo[2,1-c][1,2,4]benzothiadiazin-7-yl acetate, β isomer levo], the “EC2X” value is 296 µM.

Regarding `O=S1(=O)NC2CCCN2c2ccc(O)cc21` (stereo not drawn) [Ex. 1, 5,5-Dioxo-2,3,3a,4-tetrahydro-1H-pyrrolo[2,1-c][1,2,4]benzothiadiazin-7-ol], the “EC2X” value stood at 12 µM.

Turning to `O=S1(=O)NC2CCCN2c2cc(F)c(O)cc21` (stereo not drawn) [Ex. 4, 5,5-Dioxo-8-fluoro-2,3,3a,4-tetrahydro-1H-pyrrolo[2,1-c][1,2,4]-benzothiadiazin-7-ol], the “EC2X” value was determined as 35 µM.

Turning to `CC(=O)Oc1ccc2c(c1)S(=O)(=O)NC1CCCN21` (stereo not drawn) [Ex. 7, 5,5-Dioxo-2,3,3a,4-tetrahydro-1H-pyrrolo[2,1c][1,2,4]benzothiadiazin-7-yl acetate], the “EC2X” value was found to be 34 µM.

As for `CC(C)(C)C(=O)Oc1ccc2c(c1)S(=O)(=O)NC1CCCN21` (stereo not drawn) [Ex. 10, 5,5-Dioxo-2,3,3a,4-tetrahydro-1H-pyrrolo[2,1-c][1,2,4]benzothiadiazin-7-yl pivalate], the “EC2X” value was found to be 14 µM.

With `O=C(Oc1ccc2c(c1)S(=O)(=O)NC1CCCN21)c1ccccc1` (stereo not drawn) [Ex. 11, 5,5-Dioxo-2,3,3a,4-tetrahydro-1H-pyrrolo[2,1-c][1,2,4]benzothiadiazin-7-yl benzoate], the “EC2X” value came out at 5 µM.

Regarding `Cc1ccc(C(=O)Oc2ccc3c(c2)S(=O)(=O)NC2CCCN32)cc1` (stereo not drawn) [Ex. 28, 5,5-Dioxo-2,3,3a,4-tetrahydro-1H-pyrrolo[2,1-c][1,2,4]-benzothiadiazin-7-yl 4-methylbenzoate], the “EC2X” value is 3.6 µM.

For the compound `O=C(Oc1ccc2c(c1)S(=O)(=O)NC1CCCN21)c1cccs1` (stereo not drawn) [Ex. 34, 5,5-Dioxo-2,3,3a,4-tetrahydro-1H-pyrrolo[2,1-c][1,2,4]-benzothiadiazin-7-yl 2-thiophenecarboxylate], the “EC2X” value was 1.3 µM.

In the case of `O=C(Oc1ccc2c(c1)S(=O)(=O)NC1CCCN21)c1ccco1` (stereo not drawn) [Ex. 36, 5,5-Dioxo-2,3,3a,4-tetrahydro-1H-pyrrolo[2,1-c][1,2,4]-benzothiadiazin-7-yl 2-furancarboxylate], the “EC2X” value was determined as 2.0 µM.

With `O=C(Oc1ccc2c(c1)S(=O)(=O)NC1CCCN21)c1cccnc1` (stereo not drawn) [Ex. 37, 5,5-Dioxo-2,3,3a,4-tetrahydro-1H-pyrrolo[2,1-c][1,2,4]-benzothiadiazin-7-yl nicotinate], the “EC2X” value turned out to be 4.0 µM.

System in another data set: not given
Assay: not given
Conditions: not given
Take `O=C(Cc1ccccc1)Oc1ccc2c(c1)S(=O)(=O)NC1CCCN21` (stereo not drawn): the melting point – broadly, the temperature, or range, at which the solid turns liquid – lay within 169 to 171 °C.

With `Cl.O=C(Oc1ccc2c(c1)S(=O)(=O)NC1CCCN21)c1ccncc1` (stereo not drawn), the melting point is 243 to 247 °C.

`Cl.O=C(Oc1ccc2c(c1)S(=O)(=O)NC1CCCN21)c1ccccn1` (stereo not drawn) gave a melting point of 227 to 230 °C.

For the compound `Cc1ccc(C(=O)Oc2ccc3c(c2)S(=O)(=O)NC2CCCN32)cc1` (stereo not drawn) [Ex. 28, 5,5-Dioxo-2,3,3a,4-tetrahydro-1H-pyrrolo[2,1-c][1,2,4]-benzothiadiazin-7-yl 4-methylbenzoate], the melting point lay within 198 to 200 °C.

For the compound `O=C(Oc1ccc2c(c1)S(=O)(=O)NC1CCCN21)c1cccs1` (stereo not drawn) [Ex. 34, 5,5-Dioxo-2,3,3a,4-tetrahydro-1H-pyrrolo[2,1-c][1,2,4]-benzothiadiazin-7-yl 2-thiophenecarboxylate], the melting point was in the range of 212 to 214 °C.

The compound `O=C(Oc1ccc2c(c1)S(=O)(=O)NC1CCCN21)c1ccco1` (stereo not drawn) [Ex. 36, 5,5-Dioxo-2,3,3a,4-tetrahydro-1H-pyrrolo[2,1-c][1,2,4]-benzothiadiazin-7-yl 2-furancarboxylate] had a melting point of 205 to 208 °C.

For the compound `O=C(Oc1ccc2c(c1)S(=O)(=O)NC1CCCN21)c1cccnc1` (stereo not drawn) [Ex. 37, 5,5-Dioxo-2,3,3a,4-tetrahydro-1H-pyrrolo[2,1-c][1,2,4]-benzothiadiazin-7-yl nicotinate], the melting point was 227 to 230 °C.

For `O=C(Oc1ccc2c(c1)S(=O)(=O)NC1CCCN21)C1CCCCC1` (stereo not drawn) [Example 14, 5,5-Dioxo-2,3,3a,4-tetrahydro-1H-pyrrolo[2,1-c][1,2,4]-benzothiadiazin-7-yl cyclohexanecarboxylate], the melting point amounted to 157 °C.

`O=C(Oc1ccc2c(c1)S(=O)(=O)NC1CCCN21)C1CCCC1` (stereo not drawn) [Example 16, 5,5-Dioxo-2,3,3a,4-tetrahydro-1H-pyrrolo[2,1-c][1,2,4]-benzothiadiazin-7-yl cyclopentanecarboxylate]: the melting point was in the range of 148 to 150 °C.

In the case of `O=C(Oc1ccc2c(c1)S(=O)(=O)NC1CCCN21)C1CCC1` (stereo not drawn) [Example 17, 5,5-Dioxo-2,3,3a,4-tetrahydro-1H-pyrrolo[2,1-c][1,2,4]-benzothiadiazin-7-yl cyclobutanecarboxylate], the melting point was 166 to 170 °C.

Compound `O=C(Oc1ccc2c(c1)S(=O)(=O)NC1CCCN21)C1CC1` (stereo not drawn) [Example 18, 5,5-Dioxo-2,3,3a,4-tetrahydro-1H-pyrrolo[2,1-c][1,2,4]-benzothiadiazin-7-yl cyclopropanecarboxylate] returned a melting point of 169 to 171 °C.

In turn, `O=C(Oc1ccc2c(c1)S(=O)(=O)NC1CCCN21)c1ccc2ccccc2c1` (stereo not drawn) [Example 20, 5,5-Dioxo-2,3,3a,4-tetrahydro-1H-pyrrolo[2,1-c][1,2,4]-benzothiadiazin-7-yl 2-naphthalenecarboxylate] returned a melting point of 207 to 210 °C.

For the compound `O=C(Oc1ccc2c(c1)S(=O)(=O)NC1CCCN21)c1ccc(-c2ccccc2)cc1` (stereo not drawn) [Example 21, 5,5-Dioxo-2,3,3a,4-tetrahydro-1H-pyrrolo[2,1-c][1,2,4]-benzothiadiazin-7-yl [1,1′-biphenyl]-4-carboxylate], the melting point lay in the range of 249 to 253 °C.

Take `O=C(C=Cc1ccccc1)Oc1ccc2c(c1)S(=O)(=O)NC1CCCN21` (stereo not drawn) [Example 23, 5,5-Dioxo-2,3,3a,4-tetrahydro-1H-pyrrolo[2,1-c][1,2,4]-benzothiadiazin-7-yl 3-phenyl-2-propenoate]: the melting point was in the range of 193 to 198 °C.

Consider `COc1ccc(C(=O)Oc2ccc3c(c2)S(=O)(=O)NC2CCCN32)cc1` (stereo not drawn) [Example 24, 5,5-Dioxo-2,3,3a,4-tetrahydro-1H-pyrrolo[2,1-c][1,2,4]-benzothiadiazin-7-yl 4-methoxybenzoate], for which the melting point was 216 to 221 °C.

For the compound `O=C(Oc1ccc2c(c1)S(=O)(=O)NC1CCCN21)c1cccc(Cl)c1` (stereo not drawn) [Example 26, 5,5-Dioxo-2,3,3a,4-tetrahydro-1H-pyrrolo[2,1-c][1,2,4]-benzothiadiazin-7-yl 3-chlorobenzoate], the melting point fell in the range of 243 to 247 °C.

For the compound `N#Cc1ccc(C(=O)Oc2ccc3c(c2)S(=O)(=O)NC2CCCN32)cc1` (stereo not drawn) [Example 27, 5,5-Dioxo-2,3,3a,4-tetrahydro-1H-pyrrolo[2,1-c][1,2,4]-benzothiadiazin-7-yl 4-cyanobenzoate], the melting point was in the range of 260 to 264 °C.

In turn, `Cc1cccc(C(=O)Oc2ccc3c(c2)S(=O)(=O)NC2CCCN32)c1` (stereo not drawn) [Example 29, 5,5-Dioxo-2,3,3a,4-tetrahydro-1H-pyrrolo[2,1-c][1,2,4]-benzothiadiazin-7-yl 3-methylbenzoate] displayed a melting point of 214 to 218 °C.

In turn, `Cc1ccccc1C(=O)Oc1ccc2c(c1)S(=O)(=O)NC1CCCN21` (stereo not drawn) [Example 30, 5,5-Dioxo-2,3,3a,4-tetrahydro-1H-pyrrolo[2,1-c][1,2,4]-benzothiadiazin-7-yl 2-methylbenzoate] returned a melting point of 218 to 221 °C.

In turn, `N#Cc1cccc(C(=O)Oc2ccc3c(c2)S(=O)(=O)NC2CCCN32)c1` (stereo not drawn) [Example 31, 5,5-Dioxo-2,3,3a,4-tetrahydro-1H-pyrrolo[2,1-c][1,2,4]-benzothiadiazin-7-yl 3-cyanobenzoate] registered a melting point of 203 to 206 °C.

`O=C(Oc1ccc2c(c1)S(=O)(=O)NC1CCCN21)c1ccsc1` (stereo not drawn) [Example 33, 5,5-Dioxo-2,3,3a,4-tetrahydro-1H-pyrrolo[2,1-c][1,2,4]-benzothiadiazin-7-yl 3-thiophenecarboxylate] gave a melting point of 208 to 212 °C.

With `O=C(Oc1ccc2c(c1)S(=O)(=O)NC1CCCN21)c1ccoc1` (stereo not drawn) [Example 35, 5,5-Dioxo-2,3,3a,4-tetrahydro-1H-pyrrolo[2,1-c][1,2,4]-benzothiadiazin-7-yl 3-furancarboxylate], the melting point is 185 to 187 °C.
